± gives the expanded uncertainty stated by the source.
Settings: Liquid; for mass density: Buoyancy - hydrostatic balance; for viscosity: Falling or rolling sphere viscometry

OCCO [1,2-ethanediol]
Settings	mass density [kg/m3]	viscosity [mPa·s]
293.15 K, 98 kPa	1113.58 ± 6.7	21.1 ± 0.86
293.15 K, 49030 kPa	1134.56 ± 6.8	26.75 ± 1.1
293.15 K, 98060 kPa	1147.72 ± 6.9	33.42 ± 1.4
293.15 K, 147100 kPa	1159.85 ± 7	41.19 ± 1.7
293.15 K, 196130 kPa	1173.34 ± 7	50.33 ± 2
293.15 K, 245160 kPa	1185.44 ± 7.1	60.43 ± 2.4
312.46 K, 98 kPa	1100.88 ± 6.6	9.925 ± 0.4
312.46 K, 98060 kPa	1139.02 ± 6.8	14.82 ± 0.61
312.49 K, 49030 kPa	1123.04 ± 6.7	12.24 ± 0.5
312.49 K, 147100 kPa	1153.18 ± 6.9	17.64 ± 0.72
312.65 K, 245160 kPa	1179.39 ± 7.1	24.69 ± 1
334.87 K, 98 kPa	1085.13 ± 6.5	4.949 ± 0.2
335 K, 49030 kPa	1108.43 ± 6.7	5.952 ± 0.24
335.3 K, 98060 kPa	1127.05 ± 6.8	7.031 ± 0.29
335.35 K, 245160 kPa	1169.07 ± 7	11.15 ± 0.46
335.43 K, 147100 kPa	1143.57 ± 6.9	8.234 ± 0.34
335.45 K, 196130 kPa	1156.71 ± 6.9	9.608 ± 0.4
349.24 K, 98 kPa	1074.46 ± 6.5	3.517 ± 0.14
349.5 K, 49030 kPa	1098.33 ± 6.6	4.157 ± 0.17
349.65 K, 98060 kPa	1118.59 ± 6.7	4.89 ± 0.2
349.67 K, 147100 kPa	1136.69 ± 6.8	5.688 ± 0.23
349.8 K, 196130 kPa	1149.28 ± 6.9	6.541 ± 0.27
349.91 K, 245160 kPa	1161.91 ± 7	7.454 ± 0.3
365.7 K, 98 kPa	1061.7 ± 6.4	2.39 ± 0.097
366.1 K, 49030 kPa	1086.11 ± 6.5	2.816 ± 0.12
366.15 K, 98060 kPa	1107.99 ± 6.7	3.302 ± 0.13
366.37 K, 147100 kPa	1127.71 ± 6.8	3.812 ± 0.15
366.48 K, 196130 kPa	1139.94 ± 6.8	4.344 ± 0.18
366.8 K, 245160 kPa	1153.08 ± 6.9	4.889 ± 0.2
380.15 K, 98060 kPa	1098.24 ± 6.6	2.558 ± 0.1
380.82 K, 98 kPa	1049.47 ± 6.3	1.872 ± 0.076
381 K, 49030 kPa	1074.54 ± 6.5	2.207 ± 0.09
381.2 K, 196130 kPa	1131.06 ± 6.8	3.345 ± 0.14
381.27 K, 147100 kPa	1118.88 ± 6.7	2.932 ± 0.12
381.3 K, 245160 kPa	1145.04 ± 6.9	3.784 ± 0.15
395.55 K, 98 kPa	1037.07 ± 6.2	1.419 ± 0.058
395.6 K, 49030 kPa	1062.66 ± 6.4	1.673 ± 0.068
395.61 K, 98060 kPa	1086.68 ± 6.5	1.936 ± 0.079
395.65 K, 147100 kPa	–	2.214 ± 0.09
395.73 K, 196130 kPa	1121.71 ± 6.7	2.501 ± 0.1
395.8 K, 245160 kPa	1136.57 ± 6.8	2.811 ± 0.11
421.7 K, 98 kPa	1013.93 ± 6.1	0.96 ± 0.039
421.71 K, 49030 kPa	1040.05 ± 6.2	1.174 ± 0.048
421.8 K, 98060 kPa	1065.2 ± 6.4	1.345 ± 0.055
421.9 K, 147100 kPa	1090.87 ± 6.5	1.521 ± 0.062
422 K, 196130 kPa	–	1.716 ± 0.07
422 K, 245160 kPa	1120.22 ± 6.7	1.898 ± 0.077
464.4 K, 98 kPa	972.98 ± 5.8	0.652 ± 0.027
464.47 K, 98060 kPa	1025.08 ± 6.2	0.97 ± 0.039
464.53 K, 196130 kPa	1069.52 ± 6.4	1.203 ± 0.049
464.53 K, 245160 kPa	1090.75 ± 6.5	1.356 ± 0.055
464.54 K, 147100 kPa	1055.29 ± 6.3	1.11 ± 0.045
464.6 K, 49030 kPa	999.13 ± 6	0.877 ± 0.036

OCCOCCO [diethylene glycol]
Settings	mass density [kg/m3]	viscosity [mPa·s]
293.15 K, 98 kPa	1117.04 ± 6.7	36.52 ± 1.5
293.15 K, 49030 kPa	1137.67 ± 6.8	52.72 ± 2.1
293.15 K, 98060 kPa	1158.16 ± 7	74.16 ± 3.1
293.15 K, 147100 kPa	1171 ± 7	102.6 ± 4.7
293.15 K, 196130 kPa	1184.89 ± 7.1	139.9 ± 7.2
293.15 K, 245160 kPa	1196.63 ± 7.2	187.3 ± 11
298.15 K, 98 kPa	1114.02 ± 6.7	28.36 ± 1.2
298.15 K, 49030 kPa	1135.41 ± 6.8	40.36 ± 1.6
298.15 K, 98060 kPa	1155.68 ± 6.9	56.52 ± 2.3
298.15 K, 147100 kPa	1168.88 ± 7	77.16 ± 3.3
298.15 K, 196130 kPa	1182.6 ± 7.1	103.8 ± 4.8
298.15 K, 245160 kPa	1194.5 ± 7.2	138.3 ± 7.1
312.6 K, 98 kPa	1104.9 ± 6.6	15.25 ± 0.62
312.62 K, 49030 kPa	1128.43 ± 6.8	21.04 ± 0.86
312.63 K, 98060 kPa	1148.18 ± 6.9	28.2 ± 1.2
312.67 K, 147100 kPa	1162.46 ± 7	37.14 ± 1.5
312.71 K, 196130 kPa	1175.84 ± 7.1	48.29 ± 2
312.75 K, 245160 kPa	1188.18 ± 7.1	62.07 ± 2.6
329.28 K, 98 kPa	1093.62 ± 6.6	8.458 ± 0.35
329.33 K, 98060 kPa	1138.99 ± 6.8	14.73 ± 0.6
329.33 K, 196130 kPa	1167.96 ± 7	23.82 ± 0.98
329.33 K, 245160 kPa	1180.84 ± 7.1	29.61 ± 1.2
329.38 K, 49030 kPa	1119.54 ± 6.7	11.29 ± 0.46
329.38 K, 147100 kPa	1154.56 ± 6.9	18.83 ± 0.77
344.99 K, 98 kPa	1082.27 ± 6.5	5.34 ± 0.22
345.2 K, 49030 kPa	1110.34 ± 6.7	7.062 ± 0.29
345.38 K, 98060 kPa	1129.61 ± 6.8	8.969 ± 0.37
345.47 K, 147100 kPa	1146.46 ± 6.9	11.23 ± 0.46
345.61 K, 196130 kPa	1160.06 ± 7	13.81 ± 0.57
345.78 K, 245160 kPa	1173.38 ± 7	16.75 ± 0.68
349.77 K, 98 kPa	1078.67 ± 6.5	4.809 ± 0.2
350.06 K, 49030 kPa	1107.36 ± 6.6	6.25 ± 0.26
350.13 K, 147100 kPa	1144.02 ± 6.9	9.866 ± 0.4
350.16 K, 98060 kPa	1126.71 ± 6.8	7.904 ± 0.32
350.4 K, 196130 kPa	1157.71 ± 7	12.04 ± 0.49
366.77 K, 98 kPa	1065.35 ± 6.4	3.231 ± 0.13
367.13 K, 49030 kPa	1096.31 ± 6.6	4.124 ± 0.17
367.26 K, 147100 kPa	1134.7 ± 6.8	6.331 ± 0.26
367.3 K, 98060 kPa	1115.94 ± 6.7	5.145 ± 0.21
367.37 K, 196130 kPa	1149.25 ± 6.9	7.607 ± 0.31
367.61 K, 245160 kPa	1163.2 ± 7	9.086 ± 0.37
413.65 K, 98 kPa	1024.3 ± 6.2	1.409 ± 0.057
413.8 K, 49030 kPa	1061.47 ± 6.4	1.78 ± 0.073
413.93 K, 98060 kPa	1083.55 ± 6.5	2.153 ± 0.088
414.01 K, 147100 kPa	1106.4 ± 6.6	2.554 ± 0.1
414.09 K, 196130 kPa	1124.99 ± 6.8	2.987 ± 0.12
414.29 K, 245160 kPa	1140.38 ± 6.8	3.474 ± 0.14
463.94 K, 98060 kPa	1043.8 ± 6.3	1.218 ± 0.05
463.99 K, 49030 kPa	1016.46 ± 6.1	1.002 ± 0.041
464.05 K, 98 kPa	973.11 ± 5.8	0.789 ± 0.032
464.09 K, 147100 kPa	1071.5 ± 6.4	1.432 ± 0.058
464.2 K, 196130 kPa	1097.41 ± 6.6	1.655 ± 0.067
464.37 K, 245160 kPa	1114.3 ± 6.7	1.879 ± 0.077

OCCOCCOCCO [triethylene glycol]
Settings	mass density [kg/m3]	viscosity [mPa·s]
298.15 K, 98 kPa	1119.75 ± 6.7	36.82 ± 1.5
298.15 K, 49030 kPa	1143.46 ± 6.9	55.23 ± 2.3
298.15 K, 98060 kPa	1161.38 ± 7	80.29 ± 3.5
298.15 K, 147100 kPa	1175.25 ± 7.1	114.4 ± 5.5
298.15 K, 196130 kPa	1189.31 ± 7.2	160.6 ± 8.7
298.15 K, 245160 kPa	1200.31 ± 7.2	221.8 ± 14
312.96 K, 98 kPa	1109.61 ± 6.7	19.03 ± 0.79
313.05 K, 49030 kPa	1134.18 ± 6.8	27.42 ± 1.1
313.1 K, 98060 kPa	1152.38 ± 6.9	38.28 ± 1.6
313.18 K, 147100 kPa	1166.44 ± 7	52.5 ± 2.1
313.25 K, 196130 kPa	1180.35 ± 7.1	70.68 ± 3
313.26 K, 245160 kPa	1191.47 ± 7.2	93.99 ± 4.3
334.96 K, 98 kPa	1093.69 ± 6.6	9.002 ± 0.37
335.11 K, 49030 kPa	1119.52 ± 6.7	12.45 ± 0.52
335.14 K, 98060 kPa	1138.49 ± 6.8	16.7 ± 0.69
335.2 K, 147100 kPa	1153.34 ± 6.9	22.03 ± 0.92
335.25 K, 196130 kPa	1167.46 ± 7	28.48 ± 1.2
335.26 K, 245160 kPa	1178.87 ± 7.1	36.37 ± 1.5
349.25 K, 98 kPa	1082.8 ± 6.5	5.945 ± 0.25
349.94 K, 196130 kPa	1158.94 ± 7	17.53 ± 0.73
349.98 K, 49030 kPa	1109.01 ± 6.7	8.061 ± 0.33
349.98 K, 98060 kPa	1128.74 ± 6.8	10.66 ± 0.44
349.99 K, 245160 kPa	1170.6 ± 7	21.84 ± 0.91
350.03 K, 147100 kPa	1144.4 ± 6.9	13.75 ± 0.57
364.44 K, 98 kPa	1070.74 ± 6.4	4.131 ± 0.17
364.44 K, 49030 kPa	1098.31 ± 6.6	5.537 ± 0.23
364.72 K, 98060 kPa	1118.72 ± 6.7	7.149 ± 0.3
365.03 K, 147100 kPa	1135.26 ± 6.8	9.021 ± 0.37
365.07 K, 196130 kPa	1150.26 ± 6.9	11.24 ± 0.46
365.2 K, 245160 kPa	1162.2 ± 7	13.8 ± 0.57
413.73 K, 98 kPa	1028.27 ± 6.2	1.679 ± 0.069
414 K, 49030 kPa	1058.03 ± 6.4	2.179 ± 0.09
414.15 K, 98060 kPa	1082.77 ± 6.5	2.836 ± 0.12
414.27 K, 147100 kPa	1104.57 ± 6.7	3.32 ± 0.14
414.3 K, 196130 kPa	1122.57 ± 6.8	3.995 ± 0.17
414.43 K, 245160 kPa	1136 ± 6.8	4.485 ± 0.19
462.25 K, 98 kPa	981.42 ± 5.9	0.997 ± 0.041
462.26 K, 49030 kPa	1013.43 ± 6.1	1.303 ± 0.054
462.32 K, 98060 kPa	1044.24 ± 6.3	1.614 ± 0.067
462.41 K, 147100 kPa	1073.54 ± 6.5	1.941 ± 0.08
462.45 K, 196130 kPa	1096.35 ± 6.6	2.3 ± 0.095
462.58 K, 245160 kPa	1111.83 ± 6.7	2.678 ± 0.11
